The source of these data is patent US7247734B2 (Vernalis (Cambridge) Limited, priority 2001, dated 2007).

Usually IC50 stands for the concentration that inhibits the measured activity by half.

For one assay, the target named is T1, yeast HSP90 (Saccharomyces cerevisiae, UniProt P02829).
T1 construct: made in house; host or cells: E. coli
T1 sequence (P02829 whole entry, looked up): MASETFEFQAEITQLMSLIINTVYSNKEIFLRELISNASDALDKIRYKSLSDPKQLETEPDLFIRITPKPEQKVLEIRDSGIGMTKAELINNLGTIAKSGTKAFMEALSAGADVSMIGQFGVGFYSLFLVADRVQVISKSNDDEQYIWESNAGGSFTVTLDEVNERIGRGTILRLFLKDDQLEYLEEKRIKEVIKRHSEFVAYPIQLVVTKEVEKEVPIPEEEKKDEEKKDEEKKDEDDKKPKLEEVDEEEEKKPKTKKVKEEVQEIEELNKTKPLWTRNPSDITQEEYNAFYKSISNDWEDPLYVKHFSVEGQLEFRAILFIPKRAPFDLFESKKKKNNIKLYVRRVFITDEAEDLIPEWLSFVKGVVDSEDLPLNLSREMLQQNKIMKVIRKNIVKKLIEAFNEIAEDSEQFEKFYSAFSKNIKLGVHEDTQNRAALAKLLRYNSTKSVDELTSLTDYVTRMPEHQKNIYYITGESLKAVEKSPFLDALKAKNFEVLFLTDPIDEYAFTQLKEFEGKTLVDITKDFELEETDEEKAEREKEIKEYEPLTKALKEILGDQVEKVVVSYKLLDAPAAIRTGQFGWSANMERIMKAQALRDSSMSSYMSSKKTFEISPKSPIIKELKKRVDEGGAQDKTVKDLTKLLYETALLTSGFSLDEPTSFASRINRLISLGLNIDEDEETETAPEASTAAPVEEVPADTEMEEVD
The experiment in a line: Malachite green HSP90 ATPase assay. The format is biochemical. The settings on record: ATPase IC50, activity range, ATPase assay. The source says:
Two methods have been developed to measure the intrinsic ATPase activity of HSP90, using yeast HSP90 as a model system. The first method utilises a regenerating coupled enzyme assay. The second assay, based on the use of malachite green for the measurement of inorganic phosphate, was designed for high throughput screening (HTS) to identify novel HSP90 inhibitor drug candidates.
Colorimetric assays for the determination of phosphate, based on the formation of a phosphomolybdate complex, can be carried out in a few steps with inexpensive reagents and are well suited to the automation required for high throughput screening (see, e.g., Cogan et al., 1999). Enzymes that release inorganic phosphate are assayed using the reaction of the cationic dye, malachite green, with the a complex formed by a reaction of the inorganic phosphate with molybdate to generate a blue-green colour with an absorbance maximum at 610 nm (see, e.g., Baykov et al., 1988; Harder et al., 1994; Maehama et al., 2000). The method has been used in both high throughput (see, e.g., Rumsfeld et al., 2000) and ultra-high throughput screening formats (see, e.g., Layery et al., 2001) for a variety of non-HSP90 ATPases. However, this method is complicated by the non-enzymatic hydrolysis of ATP in the presence of acidic malachite green reagent, causing an increase in colour (see, e.g., Chan et al., 1986; Henkel et al., 1988). This process is mediated by molybdate and can be overcome by the addition of sodium citrate immediately after the reagent (see, e.g., Lanzetta et al., 1979; Schirmer et al., 1998; Baginski et al., 1975). This modification has been adapted to the 96-well microtitre plate assay previously described for other ATPases (see, e.g., Lanzetta et al., 1979) to produce the following protocol for HSP90 ATPase, which is suitable for high throughput screening.
Chemicals are of the highest purity commercially available and all aqueous solutions are made up in AR water. Because of the need to minimise contamination with inorganic phosphate, precautions should be taken with solutions and apparatus used in the assays. Glassware and pH meters are rinsed with double distilled or deionised water before use and, wherever possible, plastic ware should be used. Gloves are worn for all procedures. • (1) Immulon 96-well (Thermo Labsystems, Basingstoke, UK) or Cliniplate 384-well flat-bottomed polystyrene multiwell plates (Thermo Labsystems). • (2) Assay buffer of (a) 100 mM Tris-HCl, pH 7.4, (b) 20 mM KCl, (c) 6 mM MgCl2. Stored at 4° C. • (3) 0.0812% (w/v) malachite green (M 9636, Sigma Aldrich Ltd., Poole, UK). Stored at room temperature. • (4) 2.32% (w/v) polyvinyl alcohol USP (P 1097, Sigma Aldrich Ltd, Poole, UK) in boiling water (see Comment 1), allowed to cool, and stored at room temperature. • (5) 5.72% (w/v) ammonium molybdate in 6 M hydrochloric acid. Stored at room temperature. • (6) 34% (w/v) sodium citrate. Stored at room temperature. • (7) ATP, disodium salt, special quality (519979, Boehringer Mannheim, Lewes, UK). Stored at 4° C. • (8) E. coli expressed yeast HSP90 protein, purified >95% (see, e.g., Panaretou et al., 1998) and stored at −80° C. as 10 μl aliquots containing 0.5 mg of protein. Method
The following protocol was used: • (1) On the day of use, prepare the malachite green reagent from the stock solutions. Mix (a) 2 parts of malachite green, (b) 1 part of polyvinyl alcohol, (c) 1 part of ammonium molybdate, and (d) 2 parts of water. Initially, the reagent is a dark brown colour, but after standing at room temperature for about 2 h, this becomes a golden yellow colour and is ready for use. • (2) For the high throughput screening assays, the test compounds are dissolved at 200 μM in 2.0% DMSO and contained in daughter plates derived from the chemical libraries. Transfer 5 μl of each sample from the daughter plate to each well of the assay plate using automated equipment (see Comment 3). This represents a final concentration in the well of 40 μM.
With `COc1ccc(-c2c(-c3cc(Cl)c(O)cc3O)n[nH]c2C(=O)O)cc1` [Example 167, 5-(5-Chloro-2,4-dihydroxy-phenyl)-4-(4-methoxy-phenyl)-2H-pyrazole-3-carboxylic acid], the half-inhibitory concentration (IC50) is less than 50 µM.
The molecule `CNC(=O)c1[nH]nc(-c2cc(Cl)c(O)cc2O)c1-c1ccc(OC)cc1` [Example 168, 5-(5-Chloro-2,4-dihydroxy-phenyl)-4-(4-methoxy-phenyl)-2H-pyrazole-3-carboxylic acid methylamide] displayed a concentration for half-maximal inhibition (IC50) of less than 50 µM.
On the same count and under the same terms, to `COc1ccc(-c2c(-c3cc(Cl)c(O)cc3O)n[nH]c2C(=O)NC(C)C)cc1` [Example 170, 5-(5-Chloro-2,4-dihydroxy-phenyl)-4-(4-methoxy-phenyl)-2H-pyrazole-3-carboxylic acid isopropylamide] belongs less than 50 µM; to `COc1ccc(-c2c(-c3cc(Cl)c(O)cc3O)n[nH]c2C(N)=O)cc1` [Example 172, 5-(5-Chloro-2,4-dihydroxy-phenyl)-4-(4-methoxy-phenyl)-2H-pyrazole-3-carboxylic acid amide], less than 50 µM.

The same assay, now with this note: activity range, ATPase assay; read-out: ATPase IC50.
As for `OCCn1cc(-c2ccc(Br)cc2)c(-c2cc(Cl)c(O)cc2O)n1` [Example 166, 4-[4-(4-Bromo-phenyl)-1-(2-hydroxy-ethyl)-1H-pyrazol-3-yl]-6-chloro-benzene-1,3-diol], the IC50 is more than 50 µM.
Consider `COc1ccc(-c2c(-c3cc(Cl)c(O)cc3O)n[nH]c2C(=O)NCc2ccccc2)cc1` [Example 171, 5-(5-Chloro-2,4-dihydroxy-phenyl)-4-(4-methoxy-phenyl)-2H-pyrazole-3-carboxylic acid benzylamide], for which the IC50 is less than 50 µM.
`Oc1cc(O)c(-c2n[nH]cc2-c2ccc3c(c2)CCO3)cc1Cl` [Example 173]: the IC50 was less than 50 µM.
For `Oc1cc(O)c(-c2n[nH]cc2-c2ccsc2)cc1Cl` [Example 174], the IC50 was less than 50 µM.
`Oc1cc(O)c(-c2n[nH]cc2-c2ccncc2)cc1Cl` [Example 175]: the half-inhibitory concentration (IC50) was less than 50 µM.
As to `Cc1nc2cc(-c3c[nH]nc3-c3cc(Cl)c(O)cc3O)ccc2s1` [Example 176], the IC50 was less than 50 µM.
On to `Oc1cc(O)c(-c2n[nH]cc2-c2cncnc2)cc1Cl` [Example 177], for which the IC50 is less than 50 µM.
For `COc1ccc(-c2c(C)n[nH]c2-c2cc(C(=O)NN)c(O)cc2O)cc1` [Example 178], the IC50 is more than 50 µM.
With `COc1ccc(-c2c(-c3cc(Cl)c(O)cc3O)n[nH]c2Br)cc1` [Example 179, 4-[5-Bromo-4-(4-methoxy-phenyl)-1H-pyrazol-3-yl]-6-chloro-benzene-1,3-diol], the half-maximal inhibitory concentration (IC50) is less than 50 µM.
As for `CNC(=O)c1ccc(-c2c[nH]nc2-c2cc(Cl)c(O)cc2O)cc1` [Example 180], the IC50 was less than 50 µM.
`NC(=O)c1ccc(-c2c[nH]nc2-c2cc(Cl)c(O)cc2O)cc1` [Example 181]: the IC50 is less than 50 µM.
For `O=C(O)c1ccc(-c2c[nH]nc2-c2cc(Cl)c(O)cc2O)cc1` [Example 182], the IC50 is less than 50 µM.
Take `COc1ccc(-c2c(-c3ccc(CO)cc3O)n[nH]c2C)cc1` [Example 183]: the IC50 is more than 50 µM.
